Reference: patent US7446199B2, “Compositions useful as inhibitors of protein kinases” (Vertex Pharmaceuticals Incorporated, priority 2003, dated 2008)

Experiments:
Assay type in all cases: biochemical
KDR = KDR (Homo sapiens, UniProt P35968); test: KDR enzyme assay, coupled enzyme assay; settings: 300 μM ATP, 10 μM poly E4Y, 30 nM KDR, 37° C.
Method in brief: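 Coupled enzyme (PK/LDH, NADH) assay with 30 nM KDR in 200 mM HEPES 7.5, 10 mM MgCl2, 25 mM NaCl, 1 mM DTT, 1.5% DMSO; 300 μM ATP, 10 μM poly E4Y. Compound at 30 μM final, preincubated ~10 min at 37 °C before ATP start; rates read over 5 min at 37 °C.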

c-Met = c-Met (Homo sapiens, UniProt P08581); test: Ki determination for the inhibition of c-Met, coupled enzyme system; settings: 200 μM ATP, 10 μM polyGluTyr, 80 nM c-Met, 30° C.
Method in brief: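 Coupled pyruvate kinase/lactate dehydrogenase NADH assay with 80 nM c-Met, 200 μM ATP, 10 μM polyGluTyr in pH 7.5 HEPES, 1.5% DMSO at 30° C. Compound (0.006–12.5 μM final, 12-point) preincubated 10 min; ATP started reaction, rates read over 10 min; Ki derived from rate versus inhibitor concentration.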

JAK3 = target: T1, JAK3 (Homo sapiens, UniProt P52333); test: JAK3 inhibition assay (ELISA, Poly (Glu, Ala, Tyr) coated plates); settings: 2 mM ATP, 60 minutes at 30° C.
T1 sequence (P52333 1-1124): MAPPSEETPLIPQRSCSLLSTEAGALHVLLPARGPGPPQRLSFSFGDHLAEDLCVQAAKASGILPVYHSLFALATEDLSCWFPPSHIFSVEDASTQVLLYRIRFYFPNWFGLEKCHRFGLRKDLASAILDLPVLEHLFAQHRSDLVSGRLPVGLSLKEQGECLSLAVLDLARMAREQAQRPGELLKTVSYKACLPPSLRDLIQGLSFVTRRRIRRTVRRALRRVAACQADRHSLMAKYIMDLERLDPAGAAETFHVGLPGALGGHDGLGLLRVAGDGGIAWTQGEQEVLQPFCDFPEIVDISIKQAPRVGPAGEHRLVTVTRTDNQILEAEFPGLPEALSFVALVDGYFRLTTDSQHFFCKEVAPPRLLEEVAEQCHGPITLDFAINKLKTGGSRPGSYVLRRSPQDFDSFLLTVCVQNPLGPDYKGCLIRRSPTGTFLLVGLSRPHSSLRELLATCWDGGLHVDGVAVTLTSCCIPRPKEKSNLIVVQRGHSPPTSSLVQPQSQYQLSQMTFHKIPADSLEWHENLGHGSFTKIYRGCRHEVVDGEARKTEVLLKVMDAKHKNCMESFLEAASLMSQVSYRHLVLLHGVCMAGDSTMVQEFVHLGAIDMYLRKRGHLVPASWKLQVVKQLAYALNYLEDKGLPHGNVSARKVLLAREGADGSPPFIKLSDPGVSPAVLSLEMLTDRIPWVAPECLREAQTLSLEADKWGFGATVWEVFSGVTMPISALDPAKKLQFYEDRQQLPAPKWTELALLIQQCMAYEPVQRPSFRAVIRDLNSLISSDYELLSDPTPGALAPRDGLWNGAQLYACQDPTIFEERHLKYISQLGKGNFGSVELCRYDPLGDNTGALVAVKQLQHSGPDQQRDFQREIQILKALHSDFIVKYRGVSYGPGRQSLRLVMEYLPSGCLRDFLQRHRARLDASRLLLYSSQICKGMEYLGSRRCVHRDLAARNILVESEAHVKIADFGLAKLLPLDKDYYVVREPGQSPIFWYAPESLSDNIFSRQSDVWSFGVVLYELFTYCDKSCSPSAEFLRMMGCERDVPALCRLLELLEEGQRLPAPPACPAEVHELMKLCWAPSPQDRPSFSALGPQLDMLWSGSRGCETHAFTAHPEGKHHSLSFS
Method in brief: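 ELISA on Poly(Glu,Ala,Tyr) 6:3:1-coated plates with 2 mM ATP and 5 mM MgCl2. JAK enzyme started the reaction, run 60 min at 30° C. Phosphotyrosine was detected with HRP-conjugated 4G10 antibody and TMB, read at 450 nm, and IC50 was derived from optical densities.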

Chain of KDR (P35968 20-1356): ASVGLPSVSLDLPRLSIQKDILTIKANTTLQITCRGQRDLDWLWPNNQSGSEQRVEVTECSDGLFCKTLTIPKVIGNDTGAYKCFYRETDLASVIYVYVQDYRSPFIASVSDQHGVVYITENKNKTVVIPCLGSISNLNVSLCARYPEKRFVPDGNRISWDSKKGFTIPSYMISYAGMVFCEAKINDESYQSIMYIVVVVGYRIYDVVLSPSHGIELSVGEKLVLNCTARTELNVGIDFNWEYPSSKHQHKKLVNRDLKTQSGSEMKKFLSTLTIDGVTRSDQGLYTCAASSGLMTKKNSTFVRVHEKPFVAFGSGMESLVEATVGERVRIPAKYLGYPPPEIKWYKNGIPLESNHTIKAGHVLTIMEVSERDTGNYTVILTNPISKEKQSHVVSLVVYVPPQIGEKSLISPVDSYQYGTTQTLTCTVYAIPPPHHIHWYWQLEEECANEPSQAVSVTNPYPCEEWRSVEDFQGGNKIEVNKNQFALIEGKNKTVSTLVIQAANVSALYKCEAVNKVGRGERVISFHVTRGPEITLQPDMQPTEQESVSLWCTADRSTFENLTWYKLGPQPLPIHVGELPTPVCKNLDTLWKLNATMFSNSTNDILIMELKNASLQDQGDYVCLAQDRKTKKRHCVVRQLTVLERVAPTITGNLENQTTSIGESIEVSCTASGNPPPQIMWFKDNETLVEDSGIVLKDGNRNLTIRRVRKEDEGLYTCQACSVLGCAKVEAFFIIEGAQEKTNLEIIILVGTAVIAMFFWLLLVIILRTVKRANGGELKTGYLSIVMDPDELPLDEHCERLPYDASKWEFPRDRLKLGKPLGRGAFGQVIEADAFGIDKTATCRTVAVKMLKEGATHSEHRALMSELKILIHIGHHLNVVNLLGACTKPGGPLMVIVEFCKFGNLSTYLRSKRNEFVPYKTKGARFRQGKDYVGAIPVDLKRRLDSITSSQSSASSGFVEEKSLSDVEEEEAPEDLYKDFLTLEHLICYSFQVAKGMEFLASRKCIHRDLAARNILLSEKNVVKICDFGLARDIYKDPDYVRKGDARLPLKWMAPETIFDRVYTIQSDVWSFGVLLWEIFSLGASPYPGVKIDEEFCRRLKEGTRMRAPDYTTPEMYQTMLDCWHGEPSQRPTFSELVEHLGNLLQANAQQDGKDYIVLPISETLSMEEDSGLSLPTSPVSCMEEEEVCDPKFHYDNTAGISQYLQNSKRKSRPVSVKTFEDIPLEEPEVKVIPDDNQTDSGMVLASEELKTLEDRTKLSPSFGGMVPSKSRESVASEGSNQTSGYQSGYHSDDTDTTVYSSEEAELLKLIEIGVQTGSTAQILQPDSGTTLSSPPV
Chain of c-Met (P08581 25-1390): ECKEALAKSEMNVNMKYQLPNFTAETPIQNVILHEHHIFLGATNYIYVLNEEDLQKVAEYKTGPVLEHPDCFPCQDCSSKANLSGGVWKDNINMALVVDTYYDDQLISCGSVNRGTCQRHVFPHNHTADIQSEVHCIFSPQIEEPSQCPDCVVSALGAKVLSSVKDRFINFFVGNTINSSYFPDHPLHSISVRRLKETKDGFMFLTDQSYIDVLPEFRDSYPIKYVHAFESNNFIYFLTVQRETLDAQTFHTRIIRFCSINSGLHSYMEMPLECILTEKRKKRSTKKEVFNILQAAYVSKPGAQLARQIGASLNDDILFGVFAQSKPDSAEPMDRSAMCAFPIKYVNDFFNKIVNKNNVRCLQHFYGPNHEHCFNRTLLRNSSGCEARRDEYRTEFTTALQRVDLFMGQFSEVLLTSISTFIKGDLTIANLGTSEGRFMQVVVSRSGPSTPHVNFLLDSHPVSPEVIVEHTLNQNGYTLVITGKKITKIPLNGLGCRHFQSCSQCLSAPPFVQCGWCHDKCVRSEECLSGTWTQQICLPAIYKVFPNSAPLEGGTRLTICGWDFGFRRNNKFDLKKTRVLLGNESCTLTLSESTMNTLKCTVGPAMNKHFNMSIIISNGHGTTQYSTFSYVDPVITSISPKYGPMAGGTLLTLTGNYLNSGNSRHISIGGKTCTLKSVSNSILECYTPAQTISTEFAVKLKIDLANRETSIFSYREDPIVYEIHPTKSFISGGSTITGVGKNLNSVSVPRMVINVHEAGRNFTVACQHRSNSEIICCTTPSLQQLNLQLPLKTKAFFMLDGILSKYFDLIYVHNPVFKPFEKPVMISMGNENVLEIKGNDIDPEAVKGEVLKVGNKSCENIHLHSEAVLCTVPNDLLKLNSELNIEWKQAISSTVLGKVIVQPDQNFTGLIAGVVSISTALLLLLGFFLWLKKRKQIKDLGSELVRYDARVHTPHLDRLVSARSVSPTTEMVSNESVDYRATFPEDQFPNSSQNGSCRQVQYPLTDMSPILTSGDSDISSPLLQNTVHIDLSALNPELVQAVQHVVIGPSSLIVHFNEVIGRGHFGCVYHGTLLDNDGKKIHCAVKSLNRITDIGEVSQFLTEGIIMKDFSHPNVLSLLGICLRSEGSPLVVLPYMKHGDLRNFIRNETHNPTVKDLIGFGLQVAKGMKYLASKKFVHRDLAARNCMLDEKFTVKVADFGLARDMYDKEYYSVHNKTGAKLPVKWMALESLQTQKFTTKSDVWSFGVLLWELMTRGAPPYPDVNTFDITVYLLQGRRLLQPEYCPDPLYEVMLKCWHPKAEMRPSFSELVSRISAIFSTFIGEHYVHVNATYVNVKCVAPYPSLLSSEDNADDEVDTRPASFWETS

| Ki (KDR) | Ki (c-Met) | Ki (JAK3) | Structure (SMILES) |
| --- | --- | --- | --- |
|  | 200 to 1000 nM | 1000 to 12500 nM | COc1cnc2[nH]cc(-c3nncn3-c3cccc(F)c3F)c2c1 [Compound 108, 3-[4-(2,3-Difluoro-phenyl)-4H-[1,2,4]triazol-3-yl]-5-methoxy-1H-pyrrolo[2,3-b]pyridine] |
| 1000 to 12500 nM | 200 to 1000 nM | 1000 to 12500 nM | Fc1cccc(-c2cnoc2-c2n[nH]c3ncccc23)c1F [Compound 31, 3-(4-(2,3-difluorophenyl)isoxazol-5-yl)-1H-pyrazolo[3,4-b]pyridine] |
| 1000 to 12500 nM | 200 to 1000 nM | 1000 to 12500 nM | Fc1cccc(-c2cnoc2-c2c[nH]c3ncc(CCn4cncn4)cc23)c1F [Compound 132, 3-[4-(2,3-Difluoro-phenyl)-isoxazol-5-yl]-5-(2-[1,2,4]triazol-1-yl-ethyl)-1H-pyrrolo[2,3-b]pyridine] |
| 200 to 1000 nM | < 200 nM | 200 to 1000 nM | CN1CCN(C(=O)[C@H]2C[C@@H]2c2cnc3[nH]cc(-c4oncc4-c4cccc(F)c4F)c3c2)CC1 (relative stereo) [Compound 142, trans-(2-{3-[4-(2,3-Difluoro-phenyl)-isoxazol-5-yl]-1H-pyrrolo[2,3-b]pyridin-5-yl}-cyclopropyl)-(4-methyl-piperazin-1-yl)-methanone] |
| 200 to 1000 nM | 200 to 1000 nM | 1000 to 12500 nM | O=C(c1cnc2[nH]cc(-c3oncc3-c3cccc(F)c3F)c2c1)N1CCCC1 [Compound 104, {3-[4-(2,3-Difluoro-phenyl)-isoxazol-5-yl]-1H-pyrrolo[2,3-b]pyridin-5-yl}-pyrrolidin-1-yl-methanone] |
| 200 to 1000 nM | 200 to 1000 nM | 1000 to 12500 nM | Fc1cnc2[nH]cc(-c3oncc3-c3cccc(F)c3F)c2c1 [Compound 45, 3-[4-(2,3-Difluoro-phenyl)-isoxazol-5-yl]-5-fluoro-1H-pyrrolo[2,3-b]pyridine] |

More lines, now with the values behind:

| Structure (SMILES) | Ki (KDR) | Ki (c-Met) | Ki (JAK3) |
| --- | --- | --- | --- |
| Fc1cccc(-n2cnnc2-c2c[nH]c3ncc(-c4ccc(N5CCNCC5)nc4)cc23)c1F [Compound 111, 3-[4-(2,3-Difluoro-phenyl)-4H-[1,2,4]triazol-3-yl]-5-(6-piperazin-1-yl-pyridin-3-yl)-1H-pyrrolo[2,3-b]pyridine] | 1000 to 12500 nM | 200 to 1000 nM | 1000 to 12500 nM |
| Fc1cccc(-c2cnoc2-c2c[nH]c3nc(Cl)c(-c4ccncc4)cc23)c1F [Compound 103, 6-Chloro-3-[4-(2,3-difluoro-phenyl)-isoxazol-5-yl]-5-pyridin-4-yl-1H-pyrrolo[2,3-b]pyridine] |  | 200 to 1000 nM | 1000 to 12500 nM |
| Fc1cccc(-c2cnoc2-c2c[nH]c3ccc(-c4ccncc4)cc23)c1F [Compound 34, 3-[4-(2,3-Difluoro-phenyl)-isoxazol-5-yl]-5-pyridin-4-yl-1H-indole] |  |  | 1000 to 12500 nM |
| C[N+]1(C)CCN(c2ccc(-c3cnc4[nH]cc(-c5oncc5-c5cccc(F)c5F)c4c3)cc2)CC1 [Compound 155] | < 200 nM | < 200 nM | < 200 nM |
| c1ccc(-c2cnoc2-c2c[nH]c3ncccc23)cc1 [Compound 35, 3-[4-Phenyl-isoxazol-5-yl]-1H-pyrrolo[2,3-b]pyridine] | 200 to 1000 nM | 200 to 1000 nM | 200 to 1000 nM |
| OB(O)c1cnc2[nH]cc(-c3oncc3-c3cccc(F)c3F)c2c1 [Compound 154] | < 200 nM | < 200 nM | < 200 nM |
| Fc1cc(F)c(F)c(-c2cnoc2-c2c[nH]c3ncccc23)c1 [Compound 39, 3-[4-(2,3,5-Trifluoro-phenyl)-isoxazol-5-yl]-1H-pyrrolo [2,3-b]pyridine] | 1000 to 12500 nM | 200 to 1000 nM | 200 to 1000 nM |
| CN(C)C1CCC(c2cnc3[nH]cc(-c4oncc4-c4cccc(F)c4F)c3c2)CC1 (centres unmarked) [Compound 141, (4-{3-[4-(2,3-Difluoro-phenyl)-isoxazol-5-yl]-1H-pyrrolo[2,3-b]pyridin-5-yl}-cyclohexyl)-dimethylamine] | 1000 to 12500 nM | < 200 nM | 200 to 1000 nM |
| OCc1cnc2[nH]cc(-c3oncc3-c3cccc(F)c3F)c2c1 [Compound 55, {3-[4-(2,3-Difluoro-phenyl)-isoxazol-5-yl]-1H-pyrrolo[2,3-b]pyridin-5-yl}-methanol] | 200 to 1000 nM | 200 to 1000 nM | 1000 to 12500 nM |
| NC(=O)c1ccc(-c2cnc3[nH]cc(-c4oncc4-c4cccc(F)c4F)c3c2)cc1 [Compound 153] | 200 to 1000 nM | < 200 nM | < 200 nM |
| Fc1ccc(F)c(-c2cnoc2-c2c[nH]c3ncccc23)c1F [Compound 41, 3-[4-(2,3,6-Trifluoro-phenyl)-isoxazol-5-yl]-1H-pyrrolo [2,3-b]pyridine] | 1000 to 12500 nM | 200 to 1000 nM | < 200 nM |
| Fc1cccc(-c2cnoc2-c2c[nH]c3ncc(Cl)cc23)c1F [Compound 44, 3-[4-(2,3-Difluoro-phenyl)-isoxazol-5-yl]-5-chloro-1H-pyrrolo[2,3-b]pyridine] | 200 to 1000 nM | < 200 nM | 200 to 1000 nM |
| Cc1cnc2[nH]cc(-c3oncc3-c3cccc(F)c3F)c2c1 [Compound 46, 3-[4-(2,3-Difluoro-phenyl)-isoxazol-5-yl]-5-methyl-1H-pyrrolo[2,3-b]pyridine] | 200 to 1000 nM | < 200 nM | 200 to 1000 nM |
